The values below come from ChEMBL document CHEMBL3044757, “Design, synthesis and in vitro antimicrobial activity of novel phenylbenzamido-aminothiazole-based azasterol mimics” (2013).

Common to all, as to format: functional
Experiment [1] deals with Alternaria alternata. Briefly: Antifungal activity against Alternaria alternata assessed as inhibition of fungal spore germination after 24 hr by compound microscopic analysis relative to nystatin.
Experiment [2] concerns Enterobacter cloacae. The experiment can be described thus: Antibacterial activity against Enterobacter cloacae assessed as growth inhibition after 18 to 24 hr by resazurin assay. A general note: Resazurin is reduced to fluorescent resorufin, in cell work by metabolically active cells.
Experiment [3] concerns Escherichia coli. Briefly: Antibacterial activity against Escherichia coli assessed as growth inhibition after 18 to 24 hr by resazurin assay.
For experiment [4], the system named is Bacillus licheniformis. The experiment can be described thus: Antibacterial activity against Bacillus licheniformis assessed as growth inhibition after 18 to 24 hr by resazurin assay.
Experiment [5] concerns Fusarium oxysporum. Briefly: Antifungal activity against Fusarium oxysporum assessed as inhibition of fungal spore germination after 24 hr by compound microscopic analysis relative to nystatin.
Experiment [6] relates to Fusarium oxysporum. The experiment can be described thus: Antifungal activity against Fusarium oxysporum assessed as inhibition of fungal spore germination after 24 hr by compound microscopic analysis relative to control.
Experiment [7] deals with Alternaria alternata. The experiment can be described thus: Antifungal activity against Alternaria alternata assessed as inhibition of fungal spore germination after 24 hr by compound microscopic analysis relative to control.
Experiment [8] relates to Curvularia lunata. The experiment can be described thus: Antifungal activity against Curvularia lunata assessed as inhibition of fungal spore germination after 24 hr by compound microscopic analysis relative to control.
Experiment [9] has as its system Curvularia lunata. The experiment can be described thus: Antifungal activity against Curvularia lunata assessed as inhibition of fungal spore germination after 24 hr by compound microscopic analysis relative to nystatin.
Experiment [10] concerns Mycobacterium tuberculosis. Briefly: Antibacterial activity against Mycobacterium tuberculosis H37Rv assessed as growth inhibition after 5 days by microplate Alamar blue assay. The settings on record: 120 h.
[11] abbreviates: dose or concentration not given here.

Converted amounts (≈) assume the structure as drawn. The source made the active and inactive calls. The rule behind the calls is not given here.

Regarding `Nc1nc(-c2ccc(NC(=O)c3ccccc3)cc2)c(/N=N/c2ccccc2[N+](=O)[O-])s1`, the “fold change (FC)” value in [1] turned out to be 1.71; in experiment [5], 1.49. For the same compound, the results for the minimum inhibitory concentration (MIC) in [2], in [3] and in experiment [4] were 250 µg/mL (≈ 562 µM), 125 µg/mL (≈ 281 µM) and 0.125 µg/mL (≈ 0.281 µM), respectively.
Take `Nc1nc(-c2ccc(NC(=O)c3ccccc3)cc2)c(/N=N/c2cccc(Cl)c2)s1`: the values for the MIC in experiment [2], in [3] and in experiment [4] were 250 µg/mL (≈ 576 µM), 250 µg/mL (≈ 576 µM) and 0.125 µg/mL (≈ 0.288 µM), respectively. The inhibition result in experiment [6], in experiment [7] and in [8] was “inactive” in each case.
As for `Nc1nc(-c2ccc(NC(=O)c3ccccc3)cc2)c(/N=N/c2ccc([N+](=O)[O-])cc2)s1`, the MIC in experiment [2] worked out at 125 µg/mL (≈ 281 µM); in experiment [3] it was 62.5 µg/mL (≈ 141 µM); in experiment [4], 0.0312 µg/mL (≈ 0.0703 µM).
Turning to `Nc1nc(-c2ccc(NC(=O)c3ccccc3)cc2)c(/N=N/c2cccc([N+](=O)[O-])c2)s1`, the MIC in experiment [2] amounted to 250 µg/mL (≈ 562 µM); in [3], 62.5 µg/mL (≈ 141 µM); in experiment [4], 0.0625 µg/mL (≈ 0.141 µM). The inhibition result in [6], in [7] and in experiment [8] was “inactive” each time.
Take `Nc1nc(-c2ccc(NC(=O)c3ccccc3)cc2)c(/N=N/c2ccc(Br)cc2)s1`: the “fold change (FC)” value is reported as 1.11 in experiment [1] and 2.07 in experiment [5]. Moreover, the results for the MIC in [2], in [3] and in [4] were 250 µg/mL (≈ 523 µM), 250 µg/mL (≈ 523 µM) and 0.25 µg/mL (≈ 0.523 µM), respectively.
For the compound `Nc1nc(-c2ccc(NC(=O)c3ccccc3)cc2)c(/N=N/c2ccccc2Cl)s1`, the “fold change (FC)” value came out at 1.8 in experiment [1], 1.73 in experiment [9] and 1.17 in experiment [5]. The MIC stood at 250 µg/mL (≈ 576 µM) in experiment [2], 125 µg/mL (≈ 288 µM) in experiment [3] and 0.125 µg/mL (≈ 0.288 µM) in experiment [4].
Take `Cc1ccc(/N=N/c2sc(N)nc2-c2ccc(NC(=O)c3ccccc3)cc2)cc1`: the MIC came out at 250 µg/mL (≈ 605 µM) in [2], 125 µg/mL (≈ 302 µM) in experiment [3] and 0.125 µg/mL (≈ 0.302 µM) in [4]. For the same compound, the inhibition result in experiment [6], in experiment [7] and in [8] was “inactive” in each case.
Regarding `O=C(N[C@H](CO)[C@H](O)c1ccc([N+](=O)[O-])cc1)C(Cl)Cl` [CHLORAMPHENICOL], the results for the MIC in [2], in experiment [3] and in experiment [4] were 3.9 µg/mL (≈ 12.1 µM), 3.9 µg/mL (≈ 12.1 µM) and 0.0039 µg/mL (≈ 0.0121 µM), respectively.
As to `Nc1nc(-c2ccc(NC(=O)c3ccccc3)cc2)c(/N=N/c2ccc(Cl)cc2)s1`, the MIC was 250 µg/mL (≈ 576 µM) in [2], 250 µg/mL (≈ 576 µM) in experiment [3] and 0.125 µg/mL (≈ 0.288 µM) in experiment [4]. Also, the inhibition result in [6], in [7] and in experiment [8] was “inactive” throughout.
As for `Nc1nc(-c2ccc(NC(=O)c3ccccc3)cc2)c(/N=N/c2ccccc2)s1`, the MIC in experiment [2] came out at 250 µg/mL (≈ 626 µM); in [3] it was 62.5 µg/mL (≈ 156 µM); in experiment [4] it was 0.25 µg/mL (≈ 0.626 µM). In addition, the inhibition entry in experiment [6], in [7] and in experiment [8] was “inactive” throughout.
NYSTATIN: the inhibition in experiment [6] (setting [11]), in [7] (setting [11]) and in experiment [8] (setting [11]) was 100% throughout.
`COc1ccc(/N=N/c2sc(N)nc2-c2ccc(NC(=O)c3ccccc3)cc2)cc1`: the MIC is 250 µg/mL (≈ 582 µM) in experiment [2], 7.8 µg/mL (≈ 18.2 µM) in [3] and 0.125 µg/mL (≈ 0.291 µM) in [4]. Also, the inhibition result in experiment [6], in experiment [7] and in [8] was “inactive” each time.
In the case of `Nc1nc(-c2ccc(NC(=O)c3ccccc3)cc2)cs1`, the “fold change (FC)” value in experiment [1] is 1.31; in experiment [9], 1.06. Moreover, the MIC came out at 250 µg/mL (≈ 846 µM) in experiment [2], 7.8 µg/mL (≈ 26.4 µM) in experiment [3], 0.125 µg/mL (≈ 0.423 µM) in experiment [4] and 16 µg/mL (≈ 54.2 µM) in experiment [10].

What is called MIC is the lowest concentration found to suppress growth. Broadly, the inhibition is the change of the read-out against control, counted positive when it falls.
